The results in this text go back to publication PMC4364612.

Like-named read-outs stand apart in the source and are kept apart here. Ends that are not written are not given here. Peptide text beside a SMILES is read from it. * marks the point of attachment. Cbz = O=C(OCc1ccccc1)*

Data set [1] is described as follows: In vitro peptide degradation assay with mass spectrometry, immature DC extracts. The following applies: immature DC whole cell extracts, 120 minutes, pH7.4, pH5.5 and pH4.0, 37°C; LC-MS cleavage patterns; representative of two experiments. The class given is in vitro ADME, Human.
Data set [2] can be described thus: Intracellular stability of optimal epitopes, immature DC extracts. The following applies: RP-HPLC; for half-life: human, cells or culture medium, 1nmol peptide, 15μg immature DC whole cell extract, aliquots 0, 10, 30, 60 minutes, one-phase exponential decay; for stability rate at pH4.0 relative to pH7.4: immature DC extract, pH4.0, 37°C, 60-minute incubation, three independent experiments. The class given is in vitro ADME, Human. As to the method:
The proteolytic activities of cathepsin S (cell, 50μM; extracts, 10μM Z-VVR-AMC), omni cathepsins (cell, 50μM; extracts, 50μM Z-FR-AMC), cathepsin D&E (extracts, 10μM Mca-[…]-Dnp, Enzo Life Sciences), and cathepsin B (extracts, 50μM Z-RR-AMC, Bachem) were measured by cleavage of peptide-specific fluorogenic substrates. […] For cell extracts, equivalent amounts as determined by total protein concentration were used in reaction buffer (50mM sodium chloride, 50mM potassium phosphate, 2mM DTT, 2mM EDTA; pH 7.4, pH5.5 or pH4.0, respectively). The rate of fluorescence emission, which is proportional to the proteolytic activity, was measured every 5 minutes at 37°C in a Victor-3 Plate Reader (Perkin Elmer).
One nmol of highly purified peptide was degraded in 15μg of whole cell extracts at 37°C in degradation buffer at pH7.4 or pH4.0 [37]. Aliquots were taken at 0, 10, 30, and 60 minutes, and the reaction was stopped with 2.5μL of 100% TFA. The remaining peptide at each time point was quantified by reversed-phase HPLC (RP-HPLC; Waters). 100% represents the amount of peptide detected at time point 0 calculated as the area under the peptide peak. A stability rate of each peptide was calculated by a nonlinear regression (one-phase exponential decay) of the degradation profile obtained over a 60-minute incubation. Peptides incubated in buffer without cell extracts were used as controls.

Data set [3] in a line: Intracellular stability of optimal epitopes, DC and Mø extracts. The format is in vitro ADME, Human. The following applies: 37°C.
Procedure: One nmol of highly purified peptide was degraded in 15μg of whole cell extracts at 37°C in degradation buffer at pH7.4 or pH4.0 [37]. Aliquots were taken at 0, 10, 30, and 60 minutes, and the reaction was stopped with 2.5μL of 100% TFA. The remaining peptide at each time point was quantified by reversed-phase HPLC (RP-HPLC; Waters). 100% represents the amount of peptide detected at time point 0 calculated as the area under the peptide peak. A stability rate of each peptide was calculated by a nonlinear regression (one-phase exponential decay) of the degradation profile obtained over a 60-minute incubation [35, 44]. Peptides incubated in buffer without cell extracts were used as controls.
Data set [4] relates to immature Møs presenting to epitope-specific CTL clones. The data set can be described thus: ELISPOT cross-presentation assay with immature Møs. As to conditions: IFN-gamma ELISPOT, n≥5 donors; for change of B57-ISW9 cross-presentation upon inhibitor pretreatment: immature Møs pre-incubated 45 minutes with 10μM MG132 or 5μM E64 before p24 protein; for change of B57-KF11 CTL responses upon inhibitor pretreatment, decrease / change of B57-TW10 CTL responses upon inhibitor pretreatment, decrease: immature Møs pre-incubated with 10μM MG132, epoxomicin or 5μM E64 before p24 protein. The format is cell-based, Human. The protocol:
(§1) Human peripheral blood mononuclear cells (PBMCs) were isolated by Ficoll-Hypaque (Sigma-Aldrich) density centrifugation. Monocytes were enriched using CD14+ magnetic isolation kits (StemCell) and differentiated into DCs and Møs during a 6-day culture. DCs were cultured in AIM-V media with 1% human serum AB (Gemini Bio-Products) supplemented with 20ng/mL IL-4 and 10ng/mL GM-CSF (CellGenix). On days 2 and 4, fresh IL-4 and GM-CSF were added. Møs were cultured in ultra low attachment plates (Corning) in AIM-V media with 10% human serum AB. Where indicated, maturation of DCs and Møs was induced by TLR ligand stimulation with 2μg/mL LPS, 1μg/mL CL097, or 1μg/mL R848 (Invivogen) for 2 days. Epitope-specific CTL clones were maintained in the presence of 50U/mL IL-2, using 0.1μg/mL CD3-specific mAb 12F6, and irradiated feeder cells as stimulus for T cell proliferation.
(§2) Immature DCs and Møs were exposed to recombinant HIV-1 p24-protein, HIV-1 p55-protein or control protein (Protein Sciences Corporation, USA) for 1hr at 37°C. Where indicated, cells were pre-incubated for 45 minutes with inhibitors for proteasome (10μM MG132 (Enzo Life Sciences)) or cysteine proteases (5μM E64 (Sigma-Aldrich)). Cells pulsed with equivalent molar concentrations of the optimal epitopes were used as controls for antigen presentation and CTL clone specificity. DCs and Møs were thoroughly washed and cultured overnight with epitope-specific CTL clones at a 2:1 effector-to-target ratio in 96-well plates (Millipore) coated with anti-IFN-y mAb 1-D1K (Mabtech). ELISPOT plates were washed and developed as described previously.

In data set [5] the test system is immature DCs presenting to epitope-specific CTL clones. Kind of data set: ELISPOT cross-presentation assay with immature DCs. As to conditions: IFN-gamma ELISPOT, n≥5 donors; for change of B57-KF11 cross-presentation (CTL response) upon inhibitor pretreatment, increase: immature DCs pre-incubated 45 minutes with 10μM MG132, 5μM E64 or epoxomicin before p24 protein; for change of B57-ISW9 cross-presentation (CTL response) upon inhibitor pretreatment, increase: immature DCs pre-incubated 45 minutes with 10μM MG132 or 5μM E64 before p24 protein. The format is cell-based, Human. The protocol: as §1, §2

For `CC[C@H](C)[C@H](NC(=O)[C@H](CCCCN)NC(=O)[C@H](CCC(=O)O)NC(=O)[C@H](Cc1c[nH]c2ccccc12)NC(=O)[C@@H](N)CCCNC(=N)N)C(=O)N[C@@H](CCCNC(=N)N)C(=O)N[C@@H](CC(C)C)C(=O)N[C@@H](CCCNC(=N)N)C(=O)N1CCC[C@H]1C(=O)NCC(=O)NCC(=O)N[C@@H](CCCCN)C(=O)N[C@@H](CCCCN)C(=O)N[C@@H](CCCCN)C(=O)N[C@@H](Cc1ccc(O)cc1)C(=O)N[C@@H](CCCCN)C(=O)N[C@@H](CC(C)C)C(=O)O` [HIV-1 p17-derived peptide], in data set [1], the “degradation of A03-RK9 within the p17-derived peptide” value is “minimal degradation”.
Consider `CC[C@H](C)[C@H](NC(=O)[C@@H](NC(=O)[C@H](CCC(=O)O)NC(=O)[C@@H]1CCCN1C(=O)[C@H](CO)NC(=O)[C@H](Cc1ccccc1)NC(=O)[C@H](C)NC(=O)[C@@H](N)CCCCN)C(C)C)C(=O)N1CCC[C@H]1C(=O)N[C@@H](CCSC)C(=O)N[C@@H](Cc1ccccc1)C(=O)O` [B57-KF11], for which the half-life was 1.9 min in data set [2] (pH 4, degradation buffer pH4.0, 37°C, read-out: half-life at pH4.0) and 20 min in data set [2] (pH 7.4, degradation buffer pH7.4, 37°C, read-out: half-life at pH7.4). The “stability rate at pH4.0 relative to pH7.4” value in data set [2] is given as “dramatically reduced”. Moreover, in data set [2] (immature DC whole cell extract, 37°C, ratio of half-lives), the “fold faster degraded at pH4.0 than at pH7.4” value came out at 10 fold.
As for `CC[C@H](C)[C@H](NC(=O)[C@H](CCC(N)=O)NC(=O)[C@H](CCC(=O)O)NC(=O)[C@H](CCC(N)=O)NC(=O)[C@H](CC(C)C)NC(=O)[C@H](CC(N)=O)NC(=O)[C@H](CO)NC(=O)[C@@H](N)[C@@H](C)O)C(=O)N[C@@H](C)C(=O)N[C@@H](Cc1c[nH]c2ccccc12)C(=O)O`, the “cytosolic and lysosomal stability relative to B57-TW10, fold reduced” value in data set [3] (1nmol peptide, 15μg immature DC or Mø extracts, pH7.4 and pH4.0 (both compartments), RP-HPLC stability rate, mean of three independent experiments) is given as 7- to 8 fold.
With ISPRTLNAW [B57-ISW9], the “stability rate at pH4.0 relative to pH7.4” value in data set [2] is listed as “dramatically reduced”.
With `CC(C)C[C@H](NC(=O)[C@H]1O[C@@H]1C(=O)O)C(=O)NCCCCN=C(N)N` [E64], in data set [4], the “change of B57-ISW9 cross-presentation upon inhibitor pretreatment” value is recorded as “did not affect”; the “change of B57-KF11 CTL responses upon inhibitor pretreatment, decrease” value is “did not affect”; the “change of B57-TW10 CTL responses upon inhibitor pretreatment, decrease” value is recorded as “did not affect”. In data set [5], the “change of B57-KF11 cross-presentation (CTL response) upon inhibitor pretreatment, increase” value is recorded as “no effect” and the “change of B57-ISW9 cross-presentation (CTL response) upon inhibitor pretreatment, increase” value is reported as “no effect”.
In the case of `CC[C@H](C)[C@H](NC(=O)[C@H](C)N)C(=O)N[C@@H](Cc1ccccc1)C(=O)N[C@@H](CCC(N)=O)C(=O)N[C@@H](CO)C(=O)N[C@@H](CO)C(=O)N[C@@H](CCSC)C(=O)N[C@H](C(=O)N[C@@H](CCCCN)C(=O)O)[C@@H](C)O` [A11-ATK9], in data set [2], the “stability rate at pH4.0 relative to pH7.4” value is recorded as “dramatically reduced”.
On to FSPEVIPMF [B57-FF9], for which the “stability rate at pH4.0 relative to pH7.4” value in data set [2] is recorded as “dramatically reduced”. In data set [3] (extracts of DCs and Møs, RP-HPLC, three independent experiments), the “stability rate compared with overlapping epitope B57-KF11” value is “comparable”.
Consider `CC(C)C[C@@H](C=O)NC(=O)[C@H](CC(C)C)NC(=O)[C@H](CC(C)C)NC(=O)OCc1ccccc1` [MG132] (Cbz-Leu-Leu-Leu-aldehyde), for which, in data set [4], the “change of B57-ISW9 cross-presentation upon inhibitor pretreatment” value is on record as “not affected”; the “change of B57-KF11 CTL responses upon inhibitor pretreatment, decrease” value worked out at 2 fold; the “change of B57-TW10 CTL responses upon inhibitor pretreatment, decrease” value was determined as 3 fold. Further, in data set [5], the “change of B57-KF11 cross-presentation (CTL response) upon inhibitor pretreatment, increase” value worked out at 4 fold and the “change of B57-ISW9 cross-presentation (CTL response) upon inhibitor pretreatment, increase” value is given as 43 fold. Further, the “change of B57-TW10-specific CTL responses upon inhibitor pretreatment, decrease” value in data set [5] (immature DCs pre-incubated 45 minutes with 10μM MG132 before p24 protein) was “approximately 3 fold”.
Consider `CC[C@H](C)[C@H](NC(=O)[C@H]([C@@H](C)CC)N(C)C(C)=O)C(=O)N[C@H](C(=O)N[C@@H](CC(C)C)C(=O)[C@@]1(C)CO1)[C@@H](C)O` [epoxomicin], for which, in data set [4], the “change of B57-KF11 CTL responses upon inhibitor pretreatment, decrease” value is 2 fold and the “change of B57-TW10 CTL responses upon inhibitor pretreatment, decrease” value came out at 3 fold. For the same molecule, the “change of B57-KF11 cross-presentation (CTL response) upon inhibitor pretreatment, increase” value in data set [5] is recorded as 11 fold.
